Source: US11827543B2, “Method for continuous supply of superoxide-containing peracetate oxidant solution” (Clean Chemistry, Inc., priority 2014, dated 2023)

What was measured:
bacteria = test: ATP concentration (LuminUltra metabolic ATP measurement) in oxidant-treated water; assay type: cell-based
[1] = Half life and attenuation of oxidant solution in clean water; assay type: physicochemical
Description: Measurement of Sodium Peracetate Concentration: Measurement of sodium peracetate concentration is conducted by using a peroxide iodometric titration procedure from HACH. A known, volumetric aliquot of the peracetate-containing solution is diluted with a volume of distilled water where the total volume is convenient for titration between about 5 and 25 mL in a small glass beaker or flask. The diluted peracetate solution is stirred and 1 mL of ammonium molybdate reagent (HACH reagent 1933-32) is added. Sulfuric acid in the reagent converts the peracetate to peracetic acid. The contents of one Sulfite 1 Reagent packet (HACH reagent 2203-99) is added to the prepared solution and stirred for 5 minutes. The purple color that develops is titrated to a colorless endpoint with a standard sodium thiosulfate solution (for example, 0.0250 N sodium thiosulfate solution). The peroxide concentration is calculated based on the volume of the aliquot of peracetate-containing solution, the volume and concentration of sodium thiosulfate solution, two electron equivalents consumed for each molecule of peroxide and the molecular weight of the peroxide being measured.
Example 8: Half Life and Attenuation of Oxidant Solution: The minimum attenuation rate or degradation rate of the sodium peracetate oxidant solution was measured experimentally in clean water conditions. A sodium peracetate oxidant solution containing an initial concentration of 7.5% (wt/vol) sodium peracetate with an initial pH of about 10.1 was prepared by dissolving 0.34 g of sodium hydroxide (98%) in 10.0 mL of 2.85% wt/vol hydrogen peroxide (topical solution) in a 50 mL beaker. Then 1.22 g of triacetin (99%) was combined and the mixture rapidly stirred for 1-2 minutes at room temperature. […]
The sodium peracetate concentration was measured over time using the method described in Example 4. Concentrations were accurate to about ±2.4% of the values measured. The pH was measured using a high sodium electrode (Oakton model 35805-05) with three point calibration and automatic temperature correction.

[2] = produced water, Example 18, 0.30 mmol/L oxidant

CC(=O)O[O-].[Na+] [sodium peracetate oxidant, sodium peracetate]
rate of reduction of ATP concentration (bacteria; early flowback water, Example 19, 1.7 mmol/L, ATP at 10, 30 and 60 minutes contact time): The sodium peracetate oxidant treated flowback water had a slightly greater rate of reduction of ATP concentration than chlorine dioxide.
ATP reduction at 30 min CT (bacteria; produced water, Example 17, 29 mg/L): 99.0%
ATP reduction at 30 min CT (bacteria; produced water, Example 17, 29 mg/L plus 5 mg/L floc aid): 99.6%
ATP reduction at 30 min CT (bacteria; produced water, Example 17, 29 mg/L plus 5 mg/L floc aid, listed as Sodium Peracetate Oxidant): 99.6%
ATP (pg/mL), at 30 min CT (bacteria; produced water, Example 17, 29 mg/L plus 5 mg/L floc aid, untreated 135): 0.6 pg/mL
ATP reduction at 30 min CT (bacteria; produced water, Example 17, 29 mg/L, listed as Sodium Peracetate Oxidant): 99.0%
ATP (pg/mL), at 30 min CT (bacteria; produced water, Example 17, 29 mg/L, untreated 135): 1.4 pg/mL
ATP reduction at 30 min CT (bacteria; produced water, Example 17, 52 mg/L): 99.3%
ATP reduction at 30 min CT (bacteria; produced water, Example 17, 52 mg/L, listed as Sodium Peracetate Oxidant): 99.3%
ATP (pg/mL), at 30 min CT (bacteria; produced water, Example 17, 52 mg/L, untreated 135): 0.9 pg/mL
ATP (pg/mL), at 30 min CT (bacteria; [2]): 1.4 pg/mL
ATP reduction at 30 min CT (bacteria; [2]): 99.0%
ATP (pg/mL), at 15 min CT (bacteria; produced water, Example 18, 0.30 mmol/L oxidant, untreated 135): 4.1 pg/mL
half-life ([1]; 7.5% (wt/vol) solution, 25 °C, clean water, initial pH 10.1): 1.33 to 1.42 h
final pH of solution ([1]; 7.5% solution, 25 °C, at 265 min, initial pH 10.1): 7.3
concentration of oxidant ([1]; within about 6 days' time): less than 5 mg/L
